In patent US10501467B2, “Fused tetra or penta-cyclic dihydrodiazepinocarbazolones as PARP inhibitors” (BeiGene, Ltd., priority 2011, dated 2019) one finds EC50 data, which are given here for 27 compounds.

The first test has as its system PARP PARylation in HeLa cells. Kind of test: PARylation assay in HeLa cells. Type of test: cell-based. Particulars: H2O2-provoked DNA damage.
Consider “2-phenyl-2,3,5,10- tetrahydro- [1,2]diazepino[3,4, 5,6-def]carbazol- 6(1H)-one [Compound 5]”, for which the EC50 – broadly, the concentration at which the effect is half-maximal – was found to be 10.1 nM.

With `CN(C)c1ccc(C2CC3=NNC(=O)c4cc(F)cc5[nH]c(c3c45)C2)cc1` (stereo not drawn) [Compound 12, 2-(4-(dimethylamino)phe-nyl)-8-fluoro-2,3,5,10-tetrahydro-[1,2]diazepino[3,4,5,6-def]carbazol-6(1H)-one], the concentration giving a half-maximal response (EC50) is 26.6 nM.

The test is the same for the next values; noted with them: Homo sapiens, H2O2-provoked DNA damage.
Consider `CC1CC2=NNC(=O)c3cccc4[nH]c(c2c34)C1` (stereo not drawn) [Compound 3, 2-methyl-2,3,5,10-tetrahydro-[1,2]diazepino[3,4,5,6-def]carbazol-6(1H)-one], for which the EC50 was 4.6 nM.

`CC1(C)CCc2[nH]c3cccc4c3c2C1=NNC4=O` [Compound 4, 3,3-dimethyl-2,3,5,10-tetrahydro-[1,2]diazepino[3,4,5,6-def]carbazol-6(1H)-one] gave a concentration for a half-maximal effect (EC50) of 46.7 nM.

Compound `CC(C)C1CC2=NNC(=O)c3cccc4[nH]c(c2c34)C1` (stereo not drawn) [Compound 6, 2-isopropyl-2,3,5,10-tetrahydro-[1,2]diazepino[3,4,5,6-def]carbazol-6(1H)-one] gave a half-maximal effective concentration (EC50) of 3.9 nM.

`CN(C)c1ccc(C2CC3=NNC(=O)c4cccc5[nH]c(c3c45)C2)cc1` (stereo not drawn) [Compound 13, 2-(4-(dimethylamino)phe-nyl)-2,3,5,10-tetrahydro-[1,2]diazepino[3,4,5,6-def]carbazol-6(1H)-one] showed a concentration for a half-maximal effect (EC50) of 77.6 nM.

`O=C1NN=C2CN(C(=O)OCc3ccccc3)Cc3[nH]c4cccc1c4c32` [Compound 20, Benzyl 8-oxo-3,4,8,9-tetrahydro-2,4,9,10-tetraazacyclohepta[def]fluorene-2(1H)-carboxylate]: the midpoint of the response, the EC50, lay at 7.3 nM.

Compound `O=C1NN=C2CN(C(=O)OCc3ccccc3)Cc3[nH]c4cc(F)cc1c4c32` [Compound 21, Benzyl 6-fluoro-8-oxo-3,4,8,9-tetrahydro-2,4,9,10-tetraazacyclohepta[def]fluorene-2(1H)-carboxylate] displayed an EC50 of 14 nM.

Consider `CN1N=C2CC(C)(C)Cc3c2c2c(cccc2n3C)C1=O` [Compound 25, 2,2,5,10-tetramethyl-2,3,5,10-tetrahydro-[1,2]diazepino[3,4,5,6-def]carbazol-6(1H)-one], for which the EC50 is greater than 1000 nM.

On to `CC1(C)CC2=NNC(=O)c3cc(F)cc4[nH]c(c2c34)C1=O` [Compound 26, 8-Fluoro-2,2-dimethyl-2,3-dihydro-[1,2]diazepino[3,4,5,6-def]carbazole-1,6(5H,10H)-dione], for which the EC50 worked out at 4.5 nM.

`CN(C)CCn1c2c3c4c(cccc41)C(=O)NN=C3CCC2` [Compound 37, 10-(2-(dimethylamino)ethyl)-2,3,5,10-tetrahydro-[1,2]diazepino[3,4,5,6-def]carbazol-6(1H)-one]: the concentration for a half-maximal effect (EC50) amounted to 22 nM.

The compound `CN1CC2=NNC(=O)c3cccc4[nH]c(c2c34)C1` [Compound 44, 2-Methyl-2,3,4,9-tetrahydro-2,4,9,10-tetraazacyclohepta[def]fluoren-8(1H)-one] displayed an EC50 of 24 nM.

Turning to `CC(C)N1CC2=NNC(=O)c3cccc4[nH]c(c2c34)C1` [Compound 45, 2-Isopropyl-2,3,4,9-tetrahydro-2,4,9,10-tetraazacyclohepta[def]fluoren-8(1H)-one], a half-maximal effect (EC50) was put at 3.8 nM.

Consider `O=C1NN=C2CN(C(=O)C3CC3)Cc3[nH]c4cccc1c4c32` [Compound 47, 2-(cyclopropanecarbonyl)-2,3,4,9-tetrahydro-2,4,9,10-tetraazacyclohepta[def]fluoren-8(1H)-one], for which the response was half-maximal at 6.9 nM (EC50).

The compound `CN(C)CCn1c2c3c4c(cccc41)C(=O)NN=C3CN(C(=O)C1CC1)C2` [Compound 48, 2-(cyclopropanecarbonyl)-4-(2-(dimethylamino)ethyl)-2,3,4,9-tetrahydro-2,4,9,10-tetraazacyclohepta[def]fluoren-8(1H)-one] came in with a half-maximal effective concentration (EC50) of 6 nM.

The compound `CN(C)CCn1c2c3c4c(cc(F)cc41)C(=O)NN=C3CN(C(=O)C1CC1)C2` [Compound 50, 2-(Cyclopropanecarbonyl)-4-(2-(dimethylamino)ethyl)-6-fluoro-2,3,4,9-tetrahydro-2,4,9,10-tetraazacyclohepta[def]fluoren-8(1H)-one] displayed an EC50 of 21 nM.

In turn, `CC(C)(C)C(=O)N1CC2=NNC(=O)c3cccc4[nH]c(c2c34)C1` [Compound 51, 2-Pivaloyl-2,3,4,9-tetrahydro-2,4,9,10-tetraazacyclohepta[def]fluoren-8(1H)-one] came in with a 50% effective concentration (EC50) of 9.6 nM.

For `CC(C)(C)C(=O)N1CC2=NNC(=O)c3cc(F)cc4[nH]c(c2c34)C1` [Compound 52, 6-Fluoro-2-pivaloyl-2,3,4,9-tetrahydro-2,4,9,10-tetraazacyclohepta[def]fluoren-8(1H)-one], it took 13.5 nM to reach a half-maximal effect (EC50).

In turn, `O=C1NN=C2CN(C3CCCCC3)Cc3[nH]c4cccc1c4c32` [Compound 53, 2-Cyclohexyl-2,3,4,9-tetrahydro-2,4,9, 10-tetraazacyclohepta[def]fluoren-8(1H)-one] displayed an EC50 of 20 nM.

`CC(C)(C)CCN1CC2=NNC(=O)c3cccc4[nH]c(c2c34)C1` [Compound 54, 2-(3,3-dimethylbutyl)-2,3,4,9-tetrahydro-2,4,9,10-tetraazayclohepta[def]fluoren-8(1H)-one] displayed an EC50 of 23 nM.

Compound `CCCN1CC2=NNC(=O)c3cccc4[nH]c(c2c34)C1` [Compound 56, 2-Propyl-2,3,4,9-tetrahydro-2,4,9,10-tetraazacyclohepta[def]fluoren-8(1H)-one] showed an EC50 of 6.4 nM.

The compound `CCCCN1CC2=NNC(=O)c3cc(F)cc4[nH]c(c2c34)C1` [Compound 59, 2-Butyl-6-fluoro-2,3,4,9-tetrahydro-2,4,9,10-tetraazacyclohepta[def]fluoren-8(1H)-one] displayed an EC50 of 2 nM.

With `CN(C)CCN1CC2=NNC(=O)c3cccc4[nH]c(c2c34)C1` [Compound 60, 2-(2-(dimethylamino)ethyl)-2,3,4,9-tetrahydro-2,4,9,10-tetraazacyclohepta[def]fluoren-8(1H)-one], the response was half-maximal at 68.5 nM (EC50).

For the compound `CN(C)CCN1CC2=NNC(=O)c3cc(F)cc4[nH]c(c2c34)C1` [Compound 61, 2-(2-(Dimethylamino)ethyl)-6-fluoro-2,3,4,9-tetrahydro-2,4,9,10-tetraazacyclohepta[def]fluoren-8(1H)-one], the EC50 amounted to 42 nM.

`CC(C)(C)OC(=O)N[C@@H](Cc1ccccc1)C(=O)N1CC2=NNC(=O)c3cccc4[nH]c(c2c34)C1` [Compound 63, (S)-tert-butyl (1-oxo-1-(8-oxo-8,9-dihydro-2,4,9,10-tetraazacyclohepta[def]fluoren-2(1H,3H,4H)-yl)-3-phenylpropan-2-yl)carbamate] gave a half-maximal effective concentration (EC50) of 235 nM.

`CC1(C)CC2=NNC(=O)c3cccc4c3c2c(n4CCO)C1` [Compound 67, 10-(2-hydroxyethyl)-2,2-dimethyl-2,3,5,10-tetrahydro-[1,2]diazepino[3,4,5,6-def]carbazol-6(1H)-one] came in with a concentration for a half-maximal effect (EC50) of 247 nM.

Compound `C[C@]12CCCN1CC1=NNC(=O)c3cc(F)cc4[nH]c2c1c34` [Compound 69] returned an EC50 of 0.6 nM.
